Data taken from patent US20210260010A1, “COMPOSITIONS AND METHODS FOR THE REDUCTION OR TREATMENT OF INFLAMMATION” (AXCELLA HEALTH INC., priority 2018, published 2021).

Test system: MCP-1
Assay: MCP-1 chemokine secretion by TNFα-stimulated primary human hepatic stellate cells (ELISA)
Assay type: cell-based
Conditions: for MCP-1 chemokine secretion, per-cell normalized, fold change from plasma amino acid background: primary human hepatic stellate cells, two donors, TNFα 3 ng/mL, 12 hours; for Fold Change MCP1 Secretion Normalized Per Cell, Mean: donor 3 hepatic stellate cells, TNFα, fold change from plasma amino acid background
Description: Primary human hepatic stellate cells were obtained from Samsara Sciences and grown in Complete HSC Medium to […] confluence in T75 or T150 flasks below passage 10 were seeded into 96-well plates and incubated for 6 hours at 37° C., 5% CO2 in a humidified incubator. After 6 hours, plates were removed from the incubator washed with DPBS and pretreated (±single amino acid dropout, ±supplemental amino acid dose; see experiment for medium composition) overnight, ˜14-15 hours. After overnight pretreatment, the medium was removed from the cells, and the same pretreatment medium, now supplemented with 3 ng/mL TNFα was applied. Plates were incubated for 12 hours at 37° C., 5% CO2. After 12 hour stimulus with TNFα, supernatant was removed and frozen at −80° C. in two separate aliquots. Plates were washed and incubated with CCK-8 viability reagent (Dojindo) for 1 hour. Viability was measured on the Synergy plate reader. Immediately, the medium was removed and the plates were fixed for immunofluorescence staining.
Human CCL2/MCP1 and Human IL-6 were measured by ELISA (Human […] DuoSet ELISA, R&D Systems; Human IL-6 DuoSet ELISA, R&D Systems) at ⅕ and 1/20 dilution in 1× Reagent Diluent (Reagent Ancillary Kit 2, R&D Systems). Data were normalized to the specific per well cell density determined by Hoechst stained nuclei count.
Tables 35-38 show per-cell normalized MCP-1 chemokine secretion in primary human hepatic stellate cells from two donors as a fold change from the plasma amino acid background. Statistical significance calculated by one-way ANOVA with Dunnett's multiple comparison test within each treatment group.

## N=C(N)NCCC[C@H](N)C(=O)O [Arginine, L-Arginine]
Donor 3, Conc. 109 μM (plasma background, reference)
  Fold Change MCP1 Secretion Normalized Per Cell: 1.0000
Donor 3, Conc. 1088 μM
  Fold Change MCP1 Secretion Normalized Per Cell: 0.9435
Donor 3, Conc. 2720 μM
  Fold Change MCP1 Secretion Normalized Per Cell: 0.8821
Donor 3, Conc. 5440 μM
  Fold Change MCP1 Secretion Normalized Per Cell: 0.7840
Donor 4, Conc. 109 μM (plasma background, reference)
  Fold Change MCP1 Secretion Normalized Per Cell: 1.0000
Donor 4, Conc. 1088 μM
  Fold Change MCP1 Secretion Normalized Per Cell: 1.0453
Donor 4, Conc. 2720 μM
  Fold Change MCP1 Secretion Normalized Per Cell: 1.0446
Donor 4, Conc. 5440 μM
  Fold Change MCP1 Secretion Normalized Per Cell: 0.9456
  MCP-1 chemokine secretion, per-cell normalized, fold change from plasma amino acid background: no significant impact

## NC(=O)CC[C@H](N)C(=O)O [Glutamine, L-Glutamine]
Donor 3, Conc. 562 μM (plasma background, reference)
  Fold Change MCP1 Secretion Normalized Per Cell: 1.0000
Donor 3, Conc. 749 μM
  Fold Change MCP1 Secretion Normalized Per Cell: 0.7048
Donor 3, Conc. 3747 μM
  Fold Change MCP1 Secretion Normalized Per Cell: 0.6036
Donor 3, Conc. 11242 μM
  Fold Change MCP1 Secretion Normalized Per Cell: 0.6106
Donor 3, Conc. 22484 μM
  Fold Change MCP1 Secretion Normalized Per Cell: 0.6212
Donor 4, Conc. 562 μM (plasma background, reference)
  Fold Change MCP1 Secretion Normalized Per Cell: 1.0000
  MCP-1 chemokine secretion, per-cell normalized, fold change from plasma amino acid background: reduced MCP1 secretion in both donors but was only statistically significant in one of two donors

## CC[C@H](C)[C@H](N)C(=O)O [Isoleucine, L-Isoleucine]
Donor 3, Conc. 66 μM (plasma background, reference)
  Fold Change MCP1 Secretion Normalized Per Cell: 1.0000
Donor 3, Conc. 1328 μM
  Fold Change MCP1 Secretion Normalized Per Cell: 1.5550
Donor 3, Conc. 3320 μM
  Fold Change MCP1 Secretion Normalized Per Cell: 1.2169
Donor 3, Conc. 6639 μM
  Fold Change MCP1 Secretion Normalized Per Cell: 1.2084
Donor 4, Conc. 66 μM (plasma background, reference)
  Fold Change MCP1 Secretion Normalized Per Cell: 1.0000

## CC(C)C[C@H](N)C(=O)O [Leucine, L-Leucine]
Donor 3, Conc. 153 μM (plasma background, reference)
  Fold Change MCP1 Secretion Normalized Per Cell: 1.0000
Donor 3, Conc. 3054 μM
  Fold Change MCP1 Secretion Normalized Per Cell: 1.1479
Donor 3, Conc. 7635 μM
  Fold Change MCP1 Secretion Normalized Per Cell: 1.3054
Donor 3, Conc. 15270 μM
  Fold Change MCP1 Secretion Normalized Per Cell: 1.1808
Donor 4, Conc. 153 μM (plasma background, reference)
  Fold Change MCP1 Secretion Normalized Per Cell: 1.0000
  MCP-1 chemokine secretion, per-cell normalized, fold change from plasma amino acid background: no significant impact

## CC(=O)N[C@@H](CS)C(=O)O [NAC, N-acetylcysteine]
Conc. 5 X
  Fold Change MCP1 Secretion Normalized Per Cell, Mean: 0.8492
Conc. 10 X
  Fold Change MCP1 Secretion Normalized Per Cell, Mean: 0.6565
Conc. 20 X
  Fold Change MCP1 Secretion Normalized Per Cell, Mean: 0.5413
Conc. 40 X
  Fold Change MCP1 Secretion Normalized Per Cell, Mean: 0.4485
Donor 3, Conc. 1000 μM
  Fold Change MCP1 Secretion Normalized Per Cell: 0.8492
Donor 3, Conc. 2500 μM
  Fold Change MCP1 Secretion Normalized Per Cell: 0.6565
Donor 3, Conc. 5000 μM
  Fold Change MCP1 Secretion Normalized Per Cell: 0.5413
Donor 3, Conc. 10000 μM
  Fold Change MCP1 Secretion Normalized Per Cell: 0.4485
Donor 4, Conc. 5 X
  Fold Change MCP1 Secretion Normalized Per Cell: 0.6437
Donor 4, Conc. 10 X
  Fold Change MCP1 Secretion Normalized Per Cell: 0.8033
Donor 4, Conc. 20 X
  Fold Change MCP1 Secretion Normalized Per Cell: 0.6728
Donor 4, Conc. 40 X
  Fold Change MCP1 Secretion Normalized Per Cell: 0.5011
  MCP-1 chemokine secretion, per-cell normalized, fold change from plasma amino acid background: significantly reduced

## CC(C)[C@H](N)C(=O)O [Valine, L-Valine]
Donor 3, Conc. 234 μM (plasma background, reference)
  Fold Change MCP1 Secretion Normalized Per Cell: 1.0000
Donor 3, Conc. 4684 μM
  Fold Change MCP1 Secretion Normalized Per Cell: 1.0630
Donor 3, Conc. 11710 μM
  Fold Change MCP1 Secretion Normalized Per Cell: 1.0204
Donor 3, Conc. 23420 μM
  Fold Change MCP1 Secretion Normalized Per Cell: 1.2651
Donor 4, Conc. 234 μM (plasma background, reference)
  Fold Change MCP1 Secretion Normalized Per Cell: 1.0000
  MCP-1 chemokine secretion, per-cell normalized, fold change from plasma amino acid background: no significant impact
